Assay results from US9346815B2, “5-chloro-2-difluoromethoxyphenyl pyrazolopyrimidine compounds, compositions and methods of use thereof” (Genentech, Inc., priority 2014, dated 2016).

Columns and labels:
[1] = molecular target: isolated recombinant JAK1 kinase domain (Homo sapiens (Human), UniProt P23458); assay: JAK1 enzyme assay (Caliper LabChip, peptide phosphorylation); type: biochemical; conditions: isolated recombinant JAK1 kinase domain, 25 μM ATP
[2] = molecular target: isolated recombinant JAK2 kinase domain (Homo sapiens (Human), UniProt O60674); assay: JAK2 enzyme assay (Caliper LabChip, peptide phosphorylation); type: biochemical; conditions: 25 μM ATP
[3] = tested on: JAK1-dependent STAT6 phosphorylation downstream of IL-13 stimulation in TF-1 human erythroleukemia cells; assay: JAK1 pathway assay in TF-1 cells (IL-13-pSTAT6, MSD); type: cell-based; conditions: Homo sapiens, TF-1, TF-1 cells, read-out: IL13-pSTAT6 EC50_TF-1
Outline: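 BEAS-2B: complete growth medium, compound 1 hr at 37° C. TF-1: GM-CSF-starved overnight, serum-free OptiMEM, compound 30 min.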

Sequence of isolated recombinant JAK2 kinase domain (O60674 849-1124): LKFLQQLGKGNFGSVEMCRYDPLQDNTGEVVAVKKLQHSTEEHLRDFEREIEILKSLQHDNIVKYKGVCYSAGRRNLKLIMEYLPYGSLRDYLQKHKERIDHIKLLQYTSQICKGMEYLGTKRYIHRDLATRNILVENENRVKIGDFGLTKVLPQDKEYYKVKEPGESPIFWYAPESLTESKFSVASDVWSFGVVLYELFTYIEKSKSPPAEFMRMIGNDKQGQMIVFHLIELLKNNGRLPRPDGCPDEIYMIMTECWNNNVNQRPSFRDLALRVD
Sequence of isolated recombinant JAK1 kinase domain (P23458 875-1153): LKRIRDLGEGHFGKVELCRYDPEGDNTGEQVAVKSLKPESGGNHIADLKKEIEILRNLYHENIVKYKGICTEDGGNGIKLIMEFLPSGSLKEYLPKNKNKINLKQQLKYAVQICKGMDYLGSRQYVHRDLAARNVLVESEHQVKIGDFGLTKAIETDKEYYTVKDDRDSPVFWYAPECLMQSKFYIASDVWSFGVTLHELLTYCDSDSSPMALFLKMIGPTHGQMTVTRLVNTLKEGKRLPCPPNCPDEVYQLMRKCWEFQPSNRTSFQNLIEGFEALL

SMILES	Ki [1] [nM]	Ki [2] [nM]	EC50 [3] [nM]
CS(=O)(=O)CCCN1C[C@@H]2CN(C(=O)Cn3cc(NC(=O)c4cnn5cccnc45)c(-c4cc(Cl)ccc4OC(F)F)n3)C[C@@H]2C1 [Example 27, N-[1-[2-[(3aS,6aR)-2-(3-methylsulfonylpropyl)-1,3,3a,4,6,6a-hexahydropyrrolo[3,4-c]pyrrol-5-yl]-2-oxo-ethyl]-3-[5-chloro-2-(difluoromethoxy)phenyl]pyrazol-4-yl]pyrazolo[1,5-a]pyrimidine-3-carboxamide]	0.46	0.55	144
O=C(Nc1cn(CC(=O)N2CCC(NC3CCC3)CC2)nc1-c1cc(Cl)ccc1OC(F)F)c1cnn2cccnc12 [Example 84, N-[3-[5-chloro-2-(difluoromethoxy)phenyl]-1-[2-[4-(cyclobutylamino)-1-piperidyl]-2-oxo-ethyl]pyrazol-4-yl]pyrazolo[1,5-a]pyrimidine-3-carboxamide]	0.91	1.47	24.6
CC(C)Oc1ccc(CN(C)C2CCN(C(=O)Cn3cc(NC(=O)c4cnn5cccnc45)c(-c4cc(Cl)ccc4OC(F)F)n3)CC2)cc1 [Example 125, N-[3-[5-chloro-2-(difluoromethoxy)phenyl]-1-[2-[4-[(4-isopropoxyphenyl)methyl-methyl-amino]-1-piperidyl]-2-oxo-ethyl]pyrazol-4-yl]pyrazolo[1,5-a]pyrimidine-3-carboxamide]	0.61	2.2	11.7
CN(CCOc1ccc(Br)cc1)C1CCN(C(=O)Cn2cc(NC(=O)c3cnn4cccnc34)c(-c3cc(Cl)ccc3OC(F)F)n2)CC1 [Example 104, N-[1-[2-[4-[2-(4-bromophenoxy)ethyl-methyl-amino]-1-piperidyl]-2-oxo-ethyl]-3-[5-chloro-2-(difluoromethoxy)phenyl]pyrazol-4-yl]pyrazolo[1,5-a]pyrimidine-3-carboxamide]	0.93	2.11	20.2
CN1CCC2(C1)CN(C(=O)Cn1cc(NC(=O)c3cnn4cccnc34)c(-c3cc(Cl)ccc3OC(F)F)n1)C2 [Example 211, Pyrazolo[1,5-a]pyrimidine-3-carboxylic acid {3-(5-chloro-2-difluoromethoxyphenyl)-1-[2-(6-methyl-2,6-diazaspiro[3.4]oct-2-yl)-2-oxoethyl]-1H-pyrazol-4-yl}amide]	1.1	1.38	20.9
CCCCN(C)CC#Cc1nc(-c2cc(Cl)ccc2OC(F)F)c(NC(=O)c2cnn3cccnc23)s1 [Example 210, N-[2-[3-[butyl(methyl)amino]prop-1-ynyl]-4-[5-chloro-2-(difluoromethoxy)phenyl]thiazol-5-yl]pyrazolo[1,5-a]pyrimidine-3-carboxamide]	0.16	0.1	240
CN(Cc1ccc(Br)cc1)C1CCN(C(=O)Cn2cc(NC(=O)c3cnn4cccnc34)c(-c3cc(Cl)ccc3OC(F)F)n2)CC1 [Example 119, N-[1-[2-[4-[(4-bromophenyl)methyl-methyl-amino]-1-piperidyl]-2-oxo-ethyl]-3-[5-chloro-2-(difluoromethoxy)phenyl]pyrazol-4-yl]pyrazolo[1,5-a]pyrimidine-3-carboxamide]	1.21	0.51	20.8
CN(CCO)C1CCN(C(=O)Cn2cc(NC(=O)c3c(N)nn4cccnc34)c(-c3cc(Cl)ccc3OC(F)F)n2)CC1 [Example 140, 2-amino-N-[3-[5-chloro-2-(difluoromethoxy)phenyl]-1-[2-[4-[2-hydroxyethyl(methyl)amino]-1-piperidyl]-2-oxo-ethyl]pyrazol-4-yl]pyrazolo[1,5-a]pyrimidine-3-carboxamide]	0.46	0.39	29.3
Nc1nn2cccnc2c1C(=O)Nc1cn(C2CCN(CCCN3CCN(Cc4ccccc4)C3=O)CC2)nc1-c1cc(Cl)ccc1OC(F)F [Example 166, 2-amino-N-[1-[1-[3-(3-benzyl-2-oxo-imidazolidin-1-yl)propyl]-4-piperidyl]-3-[5-chloro-2-(difluoromethoxy)phenyl]pyrazol-4-yl]pyrazolo[1,5-a]pyrimidine-3-carboxamide]	0.91	0.26	22.9
CC(C)(O)CCN1C[C@@H]2CN(C(=O)Cn3cc(NC(=O)c4cnn5cccnc45)c(-c4cc(Cl)ccc4OC(F)F)n3)C[C@@H]2C1 [Example 50, N-[1-[2-[(3aR,6aS)-2-(3-hydroxy-3-methyl-butyl)-1,3,3a,4,6,6a-hexahydropyrrolo[3,4-c]pyrrol-5-yl]-2-oxo-ethyl]-3-[5-chloro-2-(difluoromethoxy)phenyl]pyrazol-4-yl]pyrazolo[1,5-a]pyrimidine-3-carboxamide]	0.99	0.74	32
O=C(Nc1sc(N2CCC(N3CC(F)(F)C3)CC2)nc1-c1cc(Cl)ccc1OC(F)F)c1cnn2cccnc12 [Example 196, N-[4-[5-chloro-2-(difluoromethoxy)phenyl]-2-[4-(3,3-difluoroazetidin-1-yl)-1-piperidyl]thiazol-5-yl]pyrazolo[1,5-a]pyrimidine-3-carboxamide]	1.74	1.05	17.4
CN1C[C@H]2CN(C(=O)Cn3cc(NC(=O)c4cnn5cccnc45)c(-c4cc(Cl)ccc4OC(F)F)n3)C[C@@]2(c2ccccc2)C1 [Example 43, N-[1-[2-[(3aS,6aS)-2-methyl-3a-phenyl-3,4,6,6a-tetrahydro-1H-pyrrolo[3,4-c]pyrrol-5-yl]-2-oxo-ethyl]-3-[5-chloro-2-(difluoromethoxy)phenyl]pyrazol-4-yl]pyrazolo[1,5-a]pyrimidine-3-carboxamide]	0.66	0.36	15
CN(C)C(=O)CCCN(C)C1CCN(C(=O)Cn2cc(NC(=O)c3cnn4cccnc34)c(-c3cc(Cl)ccc3OC(F)F)n2)CC1 [Example 88, N-[3-[5-chloro-2-(difluoromethoxy)phenyl]-1-[2-[4-[[4-(dimethylamino)-4-oxo-butyl]-methyl-amino]-1-piperidyl]-2-oxo-ethyl]pyrazol-4-yl]pyrazolo[1,5-a]pyrimidine-3-carboxamide]	1.72	1.91	299
CC(=O)NCCCN1CCC(n2cc(NC(=O)c3c(N)nn4cccnc34)c(-c3cc(Cl)ccc3OC(F)F)n2)CC1 [Example 150, N-[1-[1-(3-acetamidopropyl)-4-piperidyl]-3-[5-chloro-2-(difluoromethoxy)phenyl]pyrazol-4-yl]-2-amino-pyrazolo[1,5-a]pyrimidine-3-carboxamide]	0.73	0.17	20.1
CN(Cc1ccc(F)c(Br)c1)C1CCN(C(=O)Cn2cc(NC(=O)c3cnn4cccnc34)c(-c3cc(Cl)ccc3OC(F)F)n2)CC1 [Example 131, N-[1-[2-[4-[(3-bromo-4-fluoro-phenyl)methyl-methyl-amino]-1-piperidyl]-2-oxo-ethyl]-3-[5-chloro-2-(difluoromethoxy)phenyl]pyrazol-4-yl]pyrazolo[1,5-a]pyrimidine-3-carboxamide]	1.07	2.68	23.7
CN1CCCN(C(=O)Cn2cc(NC(=O)c3cnn4cccnc34)c(-c3cc(Cl)ccc3OC(F)F)n2)CC1 [Example 239, N-[3-[5-chloro-2-(difluoromethoxy)phenyl]-1-[2-(4-methyl-1,4-diazepan-1-yl)-2-oxo-ethyl]pyrazol-4-yl]pyrazolo[1,5-a]pyrimidine-3-carboxamide]	1.55	2.38	8.6
CN(C)C[C@@H]1CCCN(C(=O)Cn2cc(NC(=O)c3cnn4cccnc34)c(-c3cc(Cl)ccc3OC(F)F)n2)C1 [Example 72, N-[3-[5-chloro-2-(difluoromethoxy)phenyl]-1-[2-[(3S)-3-[(dimethylamino)methyl]-1-piperidyl]-2-oxo-ethyl]pyrazol-4-yl]pyrazolo[1,5-a]pyrimidine-3-carboxamide]	1.17	4.07	7.2
CN(CCc1ccc(C(F)(F)F)cc1)C1CCN(C(=O)Cn2cc(NC(=O)c3cnn4cccnc34)c(-c3cc(Cl)ccc3OC(F)F)n2)CC1 [Example 97, N-[3-[5-chloro-2-(difluoromethoxy)phenyl]-1-[2-[4-[methyl-[2-[4-(trifluoromethyl)phenyl]ethyl]amino]-1-piperidyl]-2-oxo-ethyl]pyrazol-4-yl]pyrazolo[1,5-a]pyrimidine-3-carboxamide]	1.16	1.97	187
CC1(CN2C[C@@H]3CN(C(=O)Cn4cc(NC(=O)c5cnn6cccnc56)c(-c5cc(Cl)ccc5OC(F)F)n4)C[C@@H]3C2)COC1 [Example 39, N-[1-[2-[(3aR,6aS)-2-[(3-methyloxetan-3-yl)methyl]-1,3,3a,4,6,6a-hexahydropyrrolo[3,4-c]pyrrol-5-yl]-2-oxo-ethyl]-3-[5-chloro-2-(difluoromethoxy)phenyl]pyrazol-4-yl]pyrazolo[1,5-a]pyrimidine-3-carboxamide]	0.55	0.87	6.6
NC(=O)CCCN1CCC(n2cc(NC(=O)c3c(N)nn4cccnc34)c(-c3cc(Cl)ccc3OC(F)F)n2)CC1 [Example 162, 2-amino-N-[1-[1-(4-amino-4-oxo-butyl)-4-piperidyl]-3-[5-chloro-2-(difluoromethoxy)phenyl]pyrazol-4-yl]pyrazolo[1,5-a]pyrimidine-3-carboxamide]	0.59	0.18	15.4
